≈ marks a conversion by molar mass, not a printed value.
Columns and labels:
Staphylococcus aureus [1] = test: Potentiation of daptomycin-induced antibacterial activity against Staphylococcus aureus ATCC 29213 assessed as daptomycin MIC incubated for 24 hrs by checkerboard titration assay (reference value: 0.5 ug/ml); type: functional; details: ATCC 29213, 24 h
Staphylococcus aureus [2] = test: Synergistic antibacterial activity against Staphylococcus aureus ATCC 29213 assessed as FIC incubated for 24 hrs in presence of gentamycin by checkerboard titration assay; type: functional
Staphylococcus aureus [3] = test: Antibacterial activity against methicillin-resistant Staphylococcus aureus NR10186 incubated for 16 to 18 hrs by broth microdilution assay; type: functional
Staphylococcus aureus [4] = test: Synergistic antibacterial activity against Staphylococcus aureus ATCC 29213 assessed as FIC incubated for 24 hrs in presence of linezolid by checkerboard titration assay; type: functional
Staphylococcus aureus [5] = test: Synergistic antibacterial activity against Staphylococcus aureus ATCC 29213 assessed as sum of FIC for test compound in presence of vancomycin and FIC for vancomycin in presence of test compound incubated for 24 hrs by checkerboard titration assay; type: functional
Staphylococcus aureus [6] = test: Antibacterial activity against methicillin-resistant Staphylococcus aureus NR10193 incubated for 16 to 18 hrs by broth microdilution assay; type: functional
Staphylococcus aureus [7] = test: Antibacterial activity against methicillin-resistant Staphylococcus aureus NR100 incubated for 16 to 18 hrs by broth microdilution assay; type: functional
Staphylococcus aureus [8] = test: Synergistic antibacterial activity against Staphylococcus aureus ATCC 29213 incubated for 24 hrs in presence of daptomycin by checkerboard titration assay; type: functional; details: ATCC 29213, 24 h
Staphylococcus aureus [9] = test: Synergistic antibacterial activity against Staphylococcus aureus ATCC 29213 assessed as FIC incubated for 24 hrs in presence of vancomycin by checkerboard titration assay; type: functional
Acinetobacter baumannii = test: Antibacterial activity against Acinetobacter baumannii BAA1605 incubated for 16 to 18 hrs by broth microdilution assay; type: functional
Staphylococcus aureus [10] = test: Synergistic antibacterial activity against Staphylococcus aureus ATCC 29213 assessed as sum of FIC for test compound in presence of linezolid and FIC for linezolid in presence of test compound incubated for 24 hrs by checkerboard titration assay; type: functional
Staphylococcus aureus [11] = test: Antibacterial activity against methicillin-resistant Staphylococcus aureus NR10194 incubated for 16 to 18 hrs by broth microdilution assay; type: functional
Staphylococcus aureus [12] = test: Synergistic antibacterial activity against Staphylococcus aureus ATCC 29213 assessed as sum of FIC for test compound in presence of levofloxacin and FIC for levofloxacin in presence of test compound incubated for 24 hrs by checkerboard titration assay; type: functional
Staphylococcus aureus [13] = test: Antibacterial activity against methicillin-resistant Staphylococcus aureus NR10198 incubated for 16 to 18 hrs by broth microdilution assay; type: functional
[14] = Cytotoxicity against African green monkey Vero cells assessed as reduction in cell viability after 72 hrs by MTT assay; type: cell-based; details: chlorocebus sabaeus
Staphylococcus aureus [15] = test: Potentiation of rifampicin-induced antibacterial activity against Staphylococcus aureus ATCC 29213 assessed as FIC incubated for 24 hrs by checkerboard titration assay; type: functional
Staphylococcus aureus [16] = test: Antibacterial activity against methicillin-susceptible Staphylococcus aureus ATCC 29213 incubated for 16 to 18 hrs by broth microdilution assay; type: functional
Staphylococcus aureus [17] = test: Potentiation of daptomycin-induced antibacterial activity against Staphylococcus aureus ATCC 29213 assessed as FIC incubated for 24 hrs by checkerboard titration assay; type: functional
Staphylococcus aureus [18] = test: Potentiation of ceftazidime-induced antibacterial activity against Staphylococcus aureus ATCC 29213 assessed as ceftazidime MIC incubated for 24 hrs by checkerboard titration assay (reference value: […] ug/ml); type: functional; details: ATCC 29213, 24 h
Staphylococcus aureus [19] = test: Synergistic antibacterial activity against Staphylococcus aureus ATCC 29213 assessed as sum of FIC for test compound in presence of meropenem and FIC for meropenem in presence of test compound incubated for 24 hrs by checkerboard titration assay; type: functional
Staphylococcus aureus [20] = test: Antibacterial activity against vancomycin-resistant Staphylococcus aureus VRS4 incubated for 16 to 18 hrs by broth microdilution assay; type: functional
Staphylococcus aureus [21] = test: Synergistic antibacterial activity against Staphylococcus aureus ATCC 29213 assessed as sum of FIC for test compound in presence of rifampicin and FIC for rifampicin in presence of test compound incubated for 24 hrs by checkerboard titration assay; type: functional
Staphylococcus aureus [22] = test: Potentiation of meropenem-induced antibacterial activity against Staphylococcus aureus ATCC 29213 assessed as FIC incubated for 24 hrs by checkerboard titration assay; type: functional
Staphylococcus aureus [23] = test: Potentiation of minocycline-induced antibacterial activity against Staphylococcus aureus ATCC 29213 assessed as FIC incubated for 24 hrs by checkerboard titration assay; type: functional
Staphylococcus aureus [24] = test: Potentiation of rifampicin-induced antibacterial activity against Staphylococcus aureus ATCC 29213 assessed as rifampicin MIC incubated for 24 hrs by checkerboard titration assay (reference value: […] ug/ml); type: functional; details: ATCC 29213, 24 h
Staphylococcus aureus [25] = test: Potentiation of gentamycin-induced antibacterial activity against Staphylococcus aureus ATCC 29213 assessed as gentamycin MIC incubated for 24 hrs by checkerboard titration assay (reference value: 0.25 ug/ml); type: functional; details: ATCC 29213, 24 h
Staphylococcus aureus [26] = test: Potentiation of meropenem-induced antibacterial activity against Staphylococcus aureus ATCC 29213 assessed as meropenem MIC incubated for 24 hrs by checkerboard titration assay (reference value: 0.25 ug/ml); type: functional; details: ATCC 29213, 24 h
Staphylococcus aureus [27] = test: Synergistic antibacterial activity against Staphylococcus aureus ATCC 29213 assessed as FIC incubated for 24 hrs in presence of ceftazidime by checkerboard titration assay; type: functional
Staphylococcus aureus [28] = test: Synergistic antibacterial activity against Staphylococcus aureus ATCC 29213 assessed as sum of FIC for test compound in presence of daptomycin and FIC for daptomycin in presence of test compound incubated for 24 hrs by checkerboard titration assay; type: functional
Staphylococcus aureus [29] = test: Synergistic antibacterial activity against Staphylococcus aureus ATCC 29213 assessed as sum of FIC for test compound in presence of ceftazidime and FIC for ceftazidime in presence of test compound incubated for 24 hrs by checkerboard titration assay; type: functional
Staphylococcus aureus [30] = test: Antibacterial activity against Staphylococcus aureus ATCC 29213 incubated for 16 to 18 hrs by broth microdilution assay; type: functional
Staphylococcus aureus [31] = test: Potentiation of linezolid-induced antibacterial activity against Staphylococcus aureus ATCC 29213 assessed as FIC incubated for 24 hrs by checkerboard titration assay; type: functional
Staphylococcus aureus [32] = test: Synergistic antibacterial activity against Staphylococcus aureus ATCC 29213 assessed as FIC incubated for 24 hrs in presence of meropenem by checkerboard titration assay; type: functional
[33] = Selectivity index, ratio of CC50 for African green monkey Vero cells to MIC for Staphylococcus aureus ATCC 29213; type: toxicity; details: read-out: Selectivity Index
Staphylococcus aureus [34] = test: Synergistic antibacterial activity against Staphylococcus aureus ATCC 29213 assessed as FIC incubated for 24 hrs in presence of levofloxacin by checkerboard titration assay; type: functional
Staphylococcus aureus [35] = test: Antibacterial activity against vancomycin-resistant Staphylococcus aureus VRS12 incubated for 16 to 18 hrs by broth microdilution assay; type: functional
Staphylococcus aureus [36] = test: Antibacterial activity against vancomycin-resistant Staphylococcus aureus VRS1 incubated for 16 to 18 hrs by broth microdilution assay; type: functional
Staphylococcus aureus [37] = test: Synergistic antibacterial activity against Staphylococcus aureus ATCC 29213 incubated for 24 hrs in presence of ceftazidime by checkerboard titration assay; type: functional; details: ATCC 29213, 24 h
Staphylococcus aureus [38] = test: Potentiation of levofloxacin-induced antibacterial activity against Staphylococcus aureus ATCC 29213 assessed as levofloxacin MIC incubated for 24 hrs by checkerboard titration assay (reference value: 0.25 ug/ml); type: functional; details: ATCC 29213, 24 h

| Structure (SMILES) | MIC (Staphylococcus aureus [1]) [ng/mL] | FIC (Staphylococcus aureus [2]) | MIC (Staphylococcus aureus [3]) [ng/mL] | FIC (Staphylococcus aureus [4]) | FIC (Staphylococcus aureus [5]) | MIC (Staphylococcus aureus [6]) [ng/mL] | MIC (Staphylococcus aureus [7]) [ng/mL] | MIC (Staphylococcus aureus [8]) [ng/mL] | FIC (Staphylococcus aureus [9]) | MIC (Acinetobacter baumannii) [ng/mL] | FIC (Staphylococcus aureus [10]) | MIC (Staphylococcus aureus [11]) [ng/mL] | FIC (Staphylococcus aureus [12]) | MIC (Staphylococcus aureus [13]) [ng/mL] | CC50 at 72 h [14] [ng/mL] | FIC (Staphylococcus aureus [15]) | MIC (Staphylococcus aureus [16]) [ng/mL] | FIC (Staphylococcus aureus [17]) | MIC (Staphylococcus aureus [18]) [ng/mL] | FIC (Staphylococcus aureus [19]) | other results |
| --- | --- | --- | --- | --- | --- | --- | --- | --- | --- | --- | --- | --- | --- | --- | --- | --- | --- | --- | --- | --- | --- |
| N#Cc1ccc(/C=C/c2nc3ccccc3c(=O)n2-c2ccc(C(=O)O)c(O)c2)cc1 | 1.9 | 0.032 | < 125 | 0.032 | 0.036 | < 125 | 125 to 250 (≈ 0.305 to 0.611 µM) | 1.9 | 0.032 | > 64000 | 0.036 | < 125 | 0.036 | < 125 | > 5000 | 0.002 | < 125 | 0.003 | 31.2 | 0.036 | MIC (Staphylococcus aureus [20]): 125 ng/mL (≈ 0.305 µM); FIC (Staphylococcus aureus [21]): 0.034; FIC (Staphylococcus aureus [22]): 0.003; FIC (Staphylococcus aureus [23]): 0.007; MIC (Staphylococcus aureus [24]): 0.03 ng/mL; MIC (Staphylococcus aureus [25]): 1.9 ng/mL; MIC (Staphylococcus aureus [26]): 0.9 ng/mL; FIC (Staphylococcus aureus [27]): 0.032; FIC (Staphylococcus aureus [28]): 0.036; FIC (Staphylococcus aureus [29]): 0.034; MIC (Staphylococcus aureus [30]): 30 ng/mL (≈ 0.0733 µM); FIC (Staphylococcus aureus [31]): 0.003; FIC (Staphylococcus aureus [32]): 0.032; selectivity ratio [33]: > 167; FIC (Staphylococcus aureus [34]): 0.032; MIC (Staphylococcus aureus [35]): 125 ng/mL (≈ 0.305 µM); MIC (Staphylococcus aureus [36]): 125 to 250 ng/mL (≈ 0.305 to 0.611 µM); MIC (Staphylococcus aureus [37]): 1.9 ng/mL; MIC (Staphylococcus aureus [38]): 0.9 ng/mL |
| N#Cc1ccc(/C=C/c2nc3cccc(F)c3c(=O)n2-c2cccc(O)c2)cc1 | 1.9 | 0.0625 | < 125 | 0.0625 | 0.0664 | < 125 | 500 (≈ 1.3 µM) | 7.8 | 0.0625 | > 64000 | 0.0662 | 125 to 250 (≈ 0.326 to 0.652 µM) | 0.0661 | < 125 | 5000 to 100000 (≈ 13 to 261 µM) | 0.002 | < 125 | 0.0019 | 31.2 | 0.0643 | MIC (Staphylococcus aureus [20]): 125 ng/mL (≈ 0.326 µM); FIC (Staphylococcus aureus [21]): 0.0645; FIC (Staphylococcus aureus [22]): 0.0018; FIC (Staphylococcus aureus [23]): 0.0072; MIC (Staphylococcus aureus [24]): 0.03 ng/mL; MIC (Staphylococcus aureus [25]): 1.9 ng/mL; MIC (Staphylococcus aureus [26]): 0.9 ng/mL; FIC (Staphylococcus aureus [27]): 0.0625; FIC (Staphylococcus aureus [28]): 0.0644; FIC (Staphylococcus aureus [29]): 0.0664; MIC (Staphylococcus aureus [30]): 62.5 ng/mL (≈ 0.163 µM); FIC (Staphylococcus aureus [31]): 0.0037; FIC (Staphylococcus aureus [32]): 0.0625; selectivity ratio [33]: > 83.4; FIC (Staphylococcus aureus [34]): 0.0625; MIC (Staphylococcus aureus [35]): 125 ng/mL (≈ 0.326 µM); MIC (Staphylococcus aureus [36]): 250 ng/mL (≈ 0.652 µM); MIC (Staphylococcus aureus [37]): 7.8 ng/mL; MIC (Staphylococcus aureus [38]): 0.9 ng/mL |
